Data taken from US20230303552A1, “ARYLSULFONYL DERIVATIVES AND THEIR USE AS MUSCARINIC ACETYLCHOLINE RECEPTOR M5 INHIBITORS” (Vanderbilt University, priority 2020, published 2023).

Target: T1, human M5 receptors (hM5) (Homo sapiens, UniProt P08912)
T1 construct: expressed in transfected cells
T1 sequence (P08912 1-532): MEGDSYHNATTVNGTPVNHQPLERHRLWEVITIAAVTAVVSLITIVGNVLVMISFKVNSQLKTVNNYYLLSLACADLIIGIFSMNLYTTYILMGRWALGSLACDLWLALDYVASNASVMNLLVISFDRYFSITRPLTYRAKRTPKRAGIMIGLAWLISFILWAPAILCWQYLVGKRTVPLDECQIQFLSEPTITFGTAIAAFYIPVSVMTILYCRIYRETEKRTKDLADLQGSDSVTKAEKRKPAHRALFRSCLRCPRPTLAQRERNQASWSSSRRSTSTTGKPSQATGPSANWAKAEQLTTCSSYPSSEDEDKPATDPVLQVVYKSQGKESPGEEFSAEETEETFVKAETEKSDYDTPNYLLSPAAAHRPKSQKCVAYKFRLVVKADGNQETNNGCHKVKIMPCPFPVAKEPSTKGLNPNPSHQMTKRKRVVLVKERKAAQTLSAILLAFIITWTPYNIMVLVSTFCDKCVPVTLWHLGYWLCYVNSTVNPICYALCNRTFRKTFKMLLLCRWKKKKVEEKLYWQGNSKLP
Assay: Cell-based functional calcium mobilization assay of mAChR M5 activity (inhibition of EC80 acetylcholine response) in CHO cells
Conditions: CHO cells stably expressing hM5; for IC50: calcium flux (Fluo-4), EC80 acetylcholine addition; for EC80 MIN: minimum of EC80 acetylcholine response, normalized to maximum acetylcholine response
Summary of the method: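 CHO cells stably expressing human M5, loaded with Fluo-4 AM in HBSS/20 mM HEPES/2.5 mM probenecid pH 7.4. Compound added 140 s before acetylcholine EC20, then EC80 added 125 s later. Calcium flux normalized to maximal acetylcholine response; IC50 from ten-point curves in the EC80 window.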

| SMILES | IC50 [nM] | EC80 MIN [%] |
| --- | --- | --- |
| COc1ccc(S(=O)(=O)N2CCC(C(=O)Nc3ccc4scnc4c3)CC2)c(C)c1 [Compound 62, N-(benzo[d]thiazol-5-yl)-1-((4-methoxy-2-methylphenyl)sulfonyl)pipe ridine-4-carboxamide] | > 10000 | 22 |
| O=C(Nc1ccc2scnc2c1)C1CCN(S(=O)(=O)c2cccc(F)c2)CC1 [Compound 63, N-(benzo[d]thiazol-5-yl)-1-((3-fluorophenyl)sulfonyl)piper idine-4-carboxamide] | 2550 | 2 |
| O=C(Nc1ccc2scnc2c1)C1CCN(S(=O)(=O)c2ccccc2C(F)(F)F)CC1 [Compound 64, N-(benzo[d]thiazol-5-yl)-1-((2-(trifluoromethyl)phenyl)sulfonyl)piperidine-4-carboxamide] | > 10000 | 2 |
| O=C(Nc1ccc2scnc2c1)C1CCN(S(=O)(=O)c2ccccc2Cl)CC1 [Compound 65, N-(benzo[d]thiazol-5-yl)-1-((2-chlorophenyl)sulfonyl)piper idine-4-carboxamide] | 652 | 2 |
| O=C(Nc1ccc2scnc2c1)C1CCN(S(=O)(=O)c2ccc(Cl)cc2)CC1 [Compound 66, N-(benzo[d]thiazol-5-yl)-1-((4-chlorophenyl)sulfonyl)piper idine-4-carboxamide] | > 10000 | 16 |
| O=C(Nc1ccc2scnc2c1)C1CCN(S(=O)(=O)c2ccc(F)cc2)CC1 [Compound 67, N-(benzo[d]thiazol-5-yl)-1-((4-fluorophenyl)sulfonyl)piper idine-4-carboxamide] | > 10000 | 7 |
| O=C(Nc1ccc2scnc2c1)C1CCN(S(=O)(=O)c2ccccn2)CC1 [Compound 68, N-(benzo[d]thiazol-5-yl)-1-(pyridin-2-ylsulfonyl)piperidine-4-carboxamide] | > 10000 | 39 |
| O=C(Nc1ccc2scnc2c1)[C@@H]1CCN(S(=O)(=O)c2cc(I)c3c(c2)CCO3)C1 [Compound 74, (R)-N-(benzo[d]thiazol-5-yl)-1((7-iodo-2,3-dihydrobenzofuran-5-yl)sulfonyl)pyrrolidine-3-carboxamide] | 895 | 2 |
| O=C(Nc1ccc2scnc2c1)[C@@H]1CCN(S(=O)(=O)c2ccc(Cl)nc2)C1 [Compound 76, (R)-N-(benzo[d]thiazol-5-yl)-1-((6-chloropyridin-3-yl)sulfonyl)pyrrolidine-3-carboxamide] | > 10000 | 23 |
| C[C@H]1CN(S(=O)(=O)c2ccc3c(c2)CCO3)C[C@@H]1C(=O)Nc1ccc2scnc2c1 [Compound 78] | 76 | 3 |
| Cc1cc(S(=O)(=O)N2CC[C@@H](C(=O)Nc3ccc4scnc4c3)C2)cc2c1OCC2 [Compound 83, (R)-N-(benzo[d]thiazol-5-yl)-1-((7-methyl-2,3-dihydrobenzofuran-5-yl)sulfonyl)pyrrolidine-3-carboxamide] | 1460 | 3 |
| CN(C(=O)C1CCN(S(=O)(=O)c2ccc3c(c2)CCO3)CC1)c1ccc2scnc2c1 [Compound 84, N-(Benzo[d]thiazol-5-yl)-1-((2,3-Dihydrobenzofuran-5-yl)Sulfonyl)-N-Methylpiperidine-4-Carboxamide] | > 10000 | – |
| CC(=O)N(C(=O)C1CCN(S(=O)(=O)c2ccc3c(c2)CCO3)CC1)c1ccc2scnc2c1 [Compound 85, N-Acetyl-N-(Benzo[d]thiazol-5-yl)-1-((2,3-Dihydrobenzofuran-5-yl)Sulfonyl)Piperidine-4-Carboxamide] | 1750 | 3 |
| O=C(Nc1cnc2cc[nH]c2c1)C1CCN(S(=O)(=O)c2ccc3c(c2)CCO3)CC1 [Compound 89, 1-((2,3-dihydrobenzofuran-5-yl)sulfonyl)-N-(1H-pyrrolo[3,2-b]pyridin-6-yl)piperidine-4-carboxamide] | > 10000 | 79 |
| O=C(Nc1cnc2[nH]ccc2c1)C1CCN(S(=O)(=O)c2ccc3c(c2)CCO3)CC1 [Compound 90, 1-((2,3-dihydrobenzofuran-5-yl)sulfonyl)-N-(1H-pyrrolo[2,3-b]pyridin-5-yl)piperidine-4-carboxamide] | > 10000 | 69 |
| Cc1nc2cc(NC(=O)C3CCN(S(=O)(=O)c4ccc5c(c4)CCO5)CC3)ccc2s1 [Compound 91, 1-((2,3-Dihydrobenzofuran-5-yl)Sulfonyl)-N-(2-Methylbenzo[d]thiazol-5-yl)Piperidine-4-Carboxamide] | 138 | 17 |

| SMILES | IC50 [nM] | EC80 MIN [%] |
| --- | --- | --- |
| O=C(Nc1ccc2snnc2c1)C1CCN(S(=O)(=O)c2ccc3c(c2)CCO3)CC1 [Compound 100] | 129 | 14 |
| Cc1cc2scnc2cc1NC(=O)C1CCN(S(=O)(=O)c2ccc3c(c2)CCO3)CC1 [Compound 101, 1-((2,3-dihydrobenzofuran-5-yl)sulfonyl)-N-(6-methylbenzo[d]thiazol-5-yl)piperidine-4-carboxamide] | > 10000 | 49 |
| O=C(Nc1cnc2scnc2c1)C1CCN(S(=O)(=O)c2ccc3c(c2)CCO3)CC1 [Compound 102, 1-((2,3-dihydrobenzofuran-5-yl)sulfonyl)-N-(thiazolo[5,4-b]pyridin-6-yl)piperidine-4-carboxamide] | > 10000 | 56 |
| CC1(C(=O)Nc2ccc3scnc3c2)CCN(S(=O)(=O)c2ccc3c(c2)CCO3)CC1 [Compound 104, N-(benzo[d]thiazol-5-yl)-1-((2,3-dihydrobenzofuran-5-yl)sulfonyl)-4-methylpiperidine-4-carboxamide] | > 10000 | 3 |
| CC1(C(=O)Nc2ccc3scnc3c2)CCN(S(=O)(=O)c2ccc3ncsc3c2)CC1 [Compound 105, N-(benzo[d]thiazol-5-yl)-1-(benzo[d]thiazol-6-ylsulfonyl)-4-methylpiperidine-4-carboxamide] | > 10000 | 25 |
| CC1(C(=O)Nc2ccc3scnc3c2)CCN(S(=O)(=O)c2ccc(Cl)nc2)CC1 [Compound 106, N-(benzol[d]thiazol-5-yl)-1-((6-chloropyridin-3-yl)sulfonyl)-4-methylpiperidine-4-carboxamide] | > 10000 | 35 |
| CC1(C(=O)Nc2ccc3scnc3c2)CCN(S(=O)(=O)c2cccc3nsnc23)CC1 [Compound 107, 1-(benz.o[c][1.2.5]thiadiazol-4-ylsulfony1)-N-(benzo[d]thiazol-5-yl)-4-methylpiperidine-4-carboxamide] | > 10000 | 24 |
| O=C(Nc1ccc2scnc2c1)C1(F)CCN(S(=O)(=O)c2ccc3ncsc3c2)CC1 [Compound 108] | > 10000 | 22 |
| Cc1nn(C)cc1S(=O)(=O)N1CCC(F)(C(=O)Nc2ccc3scnc3c2)CC1 [Compound 109, N-(benzo[d]thiazol-5-yl]-1-((1,3-dimethyl-1H-pyrazol-4-yl)sulfonyl)-4-fluoropiperidine-4-carboxamide] | > 10000 | 9 |
| Cn1cnc2cc(NC(=O)C3CCN(S(=O)(=O)c4ccc5c(c4)CCO5)CC3)ccc21 [Compound 110, 1-((2,3-dihydrobenzofuran-5-yl)sulfonyl)-N-(1-methyl-1H-benzo[d]imidazol-5-yl)piperidine-4-carboxamide] | > 10000 | 53 |
| C[C@@H]1CN(S(=O)(=O)c2ccc3c(c2)CCO3)C[C@@H]1C(=O)Nc1ccc2scnc2c1 [Compound 111, (3R,4S)-N-(benzo[d]thiazol-5-yl)-1-((2,3-dihydrobenzofuran-5-yl)sulfonyl)-4-methylpyrrolidine-3-carboxamide] | 38 | 3 |
| Cc1nn(C)cc1S(=O)(=O)N1CCC(C)(C(=O)Nc2ccc3scnc3c2)CC1 [Compound 112, N-(benzo[d]thiazol-5-yl)-1-((1,3-dimethyl-1H-pyrazol-4-yl)sulfonyl)-4-methylpiperidine-4-carboxamide] | > 10000 | 58 |
| O=C(Nc1ccc2scnc2c1)C1(F)CCN(S(=O)(=O)c2ccc3c(c2)CCO3)CC1 [Compound 113, N-(benzo[d]thiazol-5-yl)-1-((2.3-dihydrobenzofuran-5-yl)sulfonyl)-4-fluoropiperidine-4-carboxamide] | 712 | 10 |
| O=C(Nc1ccc2scnc2c1)C1(F)CCN(S(=O)(=O)c2cccnc2)CC1 [Compound 114, N-(benzo[d]thiazol-5-yl)-4-fluoro-1-(pyridin-3-ylsulfonyl)piperidine-4-carboxamide] | 2040 | 4 |
| O=C(Nc1ccc2scnc2c1)C1(F)CCN(S(=O)(=O)c2cccc3nsnc23)CC1 [Compound 115, 1-(benzo[c][1,2,5]thiadiazol-4-ylsulfonyl)-N-(benzo[d]thiazol-5-yl)-4-fluoropiperidine-4-carboxamide] | > 10000 | 51 |
| Cc1ccc(S(=O)(=O)N2CCC(C(=O)Nc3ccc4scnc4c3)CC2)cn1 [Compound 124] | 105 | 3 |
